{
  "source": "patent US20230190713A1",
  "about": "(priority 2020, published 2023)",
  "key": {"[1]": {"tested_on": "2019-nCoV (2019BetaCoV/Wuhan/WIV04/2019 strain)", "assay": "microbe, parasite or virus in culture", "type": "cell-based", "conditions": "for EC50: Severe acute respiratory syndrome coronavirus 2, Vero C1008, read-out: 2019-nCoV EC50 (µM)"}, "Ebola virus replicon": {"tested_on": "Ebola virus replicon", "assay": "microbe, parasite or virus in culture", "type": "cell-based", "conditions": "Zaire ebolavirus; for EC50: BSR-T7/5, read-out: Ebola virus EC50 (µM)"}, "[2]": {"tested_on": "avian influenza virus A/GuangZhou/99 (H9N2)", "assay": "organism not typed", "type": "cell-based", "conditions": "for EC50: read-out: A/GuangZhou/99(H9N2) EC50 (µM)"}, "2019-nCoV [3]": {"tested_on": "2019-nCoV", "parameters": "species or system K18-hACE male mice", "conditions": "mouse, in vivo"}, "2019-nCoV [4]": {"tested_on": "2019-nCoV", "parameters": "species or system Syrian hamster", "conditions": "hamster, in vivo"}, "[5]": {"tested_on": "2019-nCoV, Ebola virus, avian influenza virus A/GuangZhou/99 (H9N2)", "type": "cell-based"}, "[6]": {"tested_on": "2019-nCoV, Ebola virus, and avian influenza virus A/GuangZhou/99 (H9N2)", "assay": "organism not typed", "type": "cell-based", "conditions": "read-out: EC50 values (level reached)"}, "in vitro": {"assay": "in vitro", "conditions": "Syrian hamster"}, "A/WSN/33(H1N1) virus": {"tested_on": "A/WSN/33(H1N1) virus", "parameters": "species or system BALB/c female mice", "conditions": "mouse, in vivo"}, "[7]": {"conditions": "Severe acute respiratory syndrome coronavirus 2, Vero C1008, 48 h"}, "[8]": {"conditions": "Severe acute respiratory syndrome coronavirus 2, Vero C1008, read-out: concentration at which replication efficiency of 2019-nCoV is inhibited by 50%"}, "[9]": {"conditions": "BSR-T7/5, read-out: concentration at which replication efficiency of Ebola replicon is inhibited by 50%"}, "[10]": {"conditions": "unidentified influenza virus, H9N2, MDCK, read-out: concentration at which replication efficiency of avian influenza virus H9N2 is inhibited by 50%"}},
  "note": "pEC50: −log10 of the molar value. Values joined by “and” are separate entries in the source; they are usually repeats but may differ in a detail not shown here. Equal entries are not always repeated. “Also recorded” adds a separate entry of the source. Where two headings read alike, the source gives them in different places.",
  "data": [
    {"compound": "CN(/N=C/c1ccccc1C(=O)O)c1nc(-c2ccccc2Cl)cs1", "note": "[Compound 1]", "values": [
      {"measurement": "pEC50", "setting": "[1]; [7]", "value": 7.77},
      {"measurement": "EC50", "setting": "[1]", "value": 0.017, "unit": "µM"},
      {"measurement": "pEC50", "setting": "[1]; [8]", "value": 7.77},
      {"measurement": "pEC50", "setting": "Ebola virus replicon; BSR-T7/5, 24 h", "value": 7.74},
      {"measurement": "EC50", "setting": "Ebola virus replicon", "value": 0.018, "unit": "µM"},
      {"measurement": "pEC50", "setting": "Ebola virus replicon; [9]", "value": 7.74},
      {"measurement": "pEC50", "setting": "[2]; MDCK", "value": 7.68},
      {"measurement": "EC50", "setting": "[2]; MDCK", "value": 0.021, "unit": "µM"},
      {"measurement": "pEC50", "setting": "[2]; [10]", "value": 7.70},
      {"measurement": "weight loss and death caused by viral infection", "setting": "2019-nCoV [3]", "value": "did not significantly improve; also recorded: could not significantly improve"},
      {"measurement": "reduction of viral load in lung tissue", "setting": "2019-nCoV [4]", "value": "more than 100 fold"},
      {"measurement": "viral infection-induced weight loss", "setting": "2019-nCoV [4]", "value": "significantly slowed"},
      {"measurement": "therapeutic effect in combination with other antiviral drugs", "setting": "[5]", "value": "better therapeutic effects"},
      {"measurement": "pEC50", "setting": "[6]", "value": "~8.00"},
      {"measurement": "CC50", "setting": "in vitro", "value": 85800, "unit": "nM"}
    ]},
    {"compound": "CCN(/N=C/c1ccccc1C(=O)O)c1nc(-c2ccccc2Cl)cs1", "note": "[Compound 2]", "values": [
      {"measurement": "EC50", "setting": "[1]", "value": 0.16, "unit": "µM"},
      {"measurement": "EC50", "setting": "Ebola virus replicon", "value": 0.13, "unit": "µM"},
      {"measurement": "EC50", "setting": "[2]; MDCK", "value": 0.28, "unit": "µM"}
    ]},
    {"compound": "CCCN(/N=C/c1ccccc1C(=O)O)c1nc(-c2ccccc2Cl)cs1", "note": "[Compound 3]", "values": [
      {"measurement": "EC50", "setting": "[1]", "value": 2.35, "unit": "µM"},
      {"measurement": "EC50", "setting": "Ebola virus replicon", "value": 5.42, "unit": "µM"},
      {"measurement": "EC50", "setting": "[2]; MDCK", "value": 2.38, "unit": "µM"}
    ]},
    {"compound": "CC(C)N(/N=C/c1ccccc1C(=O)O)c1nc(-c2ccccc2Cl)cs1", "note": "[Compound 4]", "values": [
      {"measurement": "EC50", "setting": "[1]", "value": 10.2, "unit": "µM"},
      {"measurement": "EC50", "setting": "Ebola virus replicon", "value": 5.35, "unit": "µM"},
      {"measurement": "EC50", "setting": "[2]; MDCK", "value": 8.37, "unit": "µM"}
    ]},
    {"compound": "CCC(C)N(/N=C/c1ccccc1C(=O)O)c1nc(-c2ccccc2Cl)cs1", "note": "(stereo not drawn) [Compound 5]", "values": [
      {"measurement": "EC50", "setting": "[1]", "value": "> 100", "unit": "µM"},
      {"measurement": "EC50", "setting": "Ebola virus replicon", "value": 89, "unit": "µM"},
      {"measurement": "EC50", "setting": "[2]; MDCK", "value": 45.4, "unit": "µM"}
    ]},
    {"compound": "CCCC(C)N(/N=C/c1ccccc1C(=O)O)c1nc(-c2ccccc2Cl)cs1", "note": "(stereo not drawn) [Compound 6]", "values": [
      {"measurement": "EC50", "setting": "[1]", "value": "> 100", "unit": "µM"},
      {"measurement": "EC50", "setting": "Ebola virus replicon", "value": 97, "unit": "µM"},
      {"measurement": "EC50", "setting": "[2]; MDCK", "value": 22.2, "unit": "µM"}
    ]},
    {"compound": "O=C(O)c1cc(C(F)(F)F)ccc1/C=N/Nc1nc(-c2ccccc2Cl)cs1", "note": "[Compound 8-1]", "values": [
      {"measurement": "EC50", "setting": "[1]", "value": 5.25, "unit": "µM"},
      {"measurement": "EC50", "setting": "Ebola virus replicon", "value": 1.14, "unit": "µM"},
      {"measurement": "EC50", "setting": "[2]; MDCK", "value": "> 100", "unit": "µM"}
    ]},
    {"compound": "CN(/N=C/c1ccc(C(F)(F)F)cc1C(=O)O)c1nc(-c2ccccc2Cl)cs1", "note": "[Compound 8]", "values": [
      {"measurement": "EC50", "setting": "[1]", "value": "> 100", "unit": "µM"},
      {"measurement": "EC50", "setting": "Ebola virus replicon", "value": 49, "unit": "µM"},
      {"measurement": "EC50", "setting": "[2]; MDCK", "value": "> 100", "unit": "µM"}
    ]},
    {"compound": "Cc1ccc(/C=N/Nc2nc(-c3ccccc3Cl)cs2)c(C(=O)O)c1", "note": "[Compound 9-1]", "values": [
      {"measurement": "EC50", "setting": "[1]", "value": 0.07, "unit": "µM"},
      {"measurement": "EC50", "setting": "Ebola virus replicon", "value": 0.89, "unit": "µM"},
      {"measurement": "EC50", "setting": "[2]; MDCK", "value": 0.33, "unit": "µM"}
    ]},
    {"compound": "Cc1ccc(/C=N/N(C)c2nc(-c3ccccc3Cl)cs2)c(C(=O)O)c1", "note": "[Compound 9]", "values": [
      {"measurement": "EC50", "setting": "[1]", "value": 0.29, "unit": "µM"},
      {"measurement": "EC50", "setting": "Ebola virus replicon", "value": 2.26, "unit": "µM"},
      {"measurement": "EC50", "setting": "[2]; MDCK", "value": 1.37, "unit": "µM"}
    ]},
    {"compound": "O=C(O)c1cc(F)ccc1/C=N/Nc1nc(-c2ccccc2Cl)cs1", "note": "[Compound 10-1]", "values": [
      {"measurement": "EC50", "setting": "[1]", "value": 0.11, "unit": "µM"},
      {"measurement": "EC50", "setting": "Ebola virus replicon", "value": 0.97, "unit": "µM"},
      {"measurement": "EC50", "setting": "[2]; MDCK", "value": 0.33, "unit": "µM"}
    ]},
    {"compound": "CN(/N=C/c1ccc(F)cc1C(=O)O)c1nc(-c2ccccc2Cl)cs1", "note": "[Compound 10]", "values": [
      {"measurement": "EC50", "setting": "[1]", "value": 0.1, "unit": "µM"},
      {"measurement": "EC50", "setting": "Ebola virus replicon", "value": 0.32, "unit": "µM"},
      {"measurement": "EC50", "setting": "[2]; MDCK", "value": 3.2, "unit": "µM"}
    ]},
    {"compound": "Cc1ccc(/C=N/N(C)c2nc(-c3ccccc3)c(C)s2)c(C(=O)O)c1", "note": "[Compound 11]", "values": [
      {"measurement": "EC50", "setting": "[1]", "value": "> 100", "unit": "µM"}
    ]},
    {"compound": "Cc1sc(N/N=C/c2ccccc2C(=O)O)nc1-c1ccccc1", "note": "[Compound 12-1]", "values": [
      {"measurement": "EC50", "setting": "[1]", "value": 0.52, "unit": "µM"}
    ]},
    {"compound": "Cc1sc(N(C)/N=C/c2ccccc2C(=O)O)nc1-c1ccccc1", "note": "[Compound 12]", "values": [
      {"measurement": "EC50", "setting": "[1]", "value": 0.35, "unit": "µM"}
    ]},
    {"compound": "Cc1sc(N(C)/N=C/c2ccccc2C(=O)O)nc1-c1ccccc1Cl", "note": "[Compound 13]", "values": [
      {"measurement": "EC50", "setting": "[1]", "value": "> 100", "unit": "µM"},
      {"measurement": "EC50", "setting": "[2]; MDCK", "value": 8.27, "unit": "µM"}
    ]},
    {"compound": "O=C(O)c1ccccc1/C=N/Nc1nc(-c2ccccc2Cl)cs1", "note": "[Compound 16]", "values": [
      {"measurement": "pEC50", "setting": "[1]; [7]", "value": 5.81},
      {"measurement": "EC50", "setting": "[1]", "value": 1.56, "unit": "µM"},
      {"measurement": "pEC50", "setting": "[1]; [8]", "value": 5.81},
      {"measurement": "pEC50", "setting": "Ebola virus replicon; BSR-T7/5, 24 h", "value": 4.94},
      {"measurement": "EC50", "setting": "Ebola virus replicon", "value": 11.4, "unit": "µM"},
      {"measurement": "pEC50", "setting": "Ebola virus replicon; [9]", "value": 4.83},
      {"measurement": "pEC50", "setting": "[2]; MDCK", "value": 4.88},
      {"measurement": "EC50", "setting": "[2]; MDCK", "value": 13.2, "unit": "µM"},
      {"measurement": "pEC50", "setting": "[2]; [10]", "value": 4.88},
      {"measurement": "mice treated (survival)", "setting": "A/WSN/33(H1N1) virus", "value": "50%-100% and 50% and 100%"},
      {"measurement": "therapeutic effect in combination with other antiviral drugs", "setting": "[5]", "value": "better therapeutic effects"},
      {"measurement": "pEC50", "setting": "[6]", "value": "~8.00"}
    ]},
    {"compound": "O=C(O)c1cc(F)c(F)cc1/C=N/Nc1nc(-c2ccccc2Cl)cs1", "note": "[Compound 23-1]", "values": [
      {"measurement": "EC50", "setting": "[1]", "value": 5.44, "unit": "µM"}
    ]},
    {"compound": "O=C(O)c1ccccc1/C=N/Nc1nc(-c2cc(Cl)ccc2Cl)cs1", "note": "[Compound 55]", "values": [
      {"measurement": "EC50", "setting": "[1]", "value": 1.02, "unit": "µM"},
      {"measurement": "EC50", "setting": "Ebola virus replicon", "value": 5.4, "unit": "µM"},
      {"measurement": "EC50", "setting": "[2]; MDCK", "value": 4.06, "unit": "µM"}
    ]}
  ]
}
